Assays:
Assay type in all cases: cell-based
[1] = system: Pseudomonas aeruginosa, Enterobacter gergoviae, Pseudomonas putida, Salmonella choleraesuis, Escherichia coli, Staphylococcus aureus (mixed inoculum); experiment: Preservative efficacy of dimethoxane/2-phenoxyethanol in laundry detergent, repeated bacterial challenge; conditions: day 27
[2] = system: Pseudomonas aeruginosa, Enterobacter gergoviae, Pseudomonas putida, Salmonella choleraesuis, Escherichia coli, Staphylococcus aureus (mixed inoculum); experiment: Preservative efficacy of dimethoxane/BNPD in laundry detergent, repeated bacterial challenge; parameters: key to viable microorganism score (0-8 scale): 0-8 score = number of 1:10 dilutions to reach growth endpoint; conditions: day 20
Procedure: (§1) Synergy Calculations. The reported synergy indexes are measured and calculated using the formula described below. In this approach, a synergy index of 1 indicates additivity. If the index is less than 1, synergy has occurred, while a synergy index greater than 1 indicates antagonism. Synergy index=CA/Ca+CB/Cb • Ca=minimal concentration of antimicrobial A, alone, producing a 4 log10 microbial kill • Cb=minimal concentration of antimicrobial B, alone, producing a 4 log10 microbial kill
(§2) CA and CB=the concentrations of antimicrobials A and B, in combination, producing the required microbial kill (a 4 log10 microbial kill unless indicated otherwise in a particular Example).
A sample of laundry detergent is treated with dimethoxane, BNPD, and combinations thereof. The samples are inoculated with four times over a four-week period with a 5×10^6 colony forming units per milliliter (CFU/mL) inoculum that includes Pseudomonas aeruginosa ATCC#9027, Enterobacter gergoviae ATCC#33028 Pseudomonas putida ATCC#49128, Salmonella choleraesuis ATCC#10708, Pseudomonas aeruginosa ATCC#10145, Pseudomonas aeruginosa ATCC#15442, Escherichia coli ATCC#11229, and Staphylococcus aureus ATCC#6538. The samples are inoculated on days 0, 2, 7, and 14 and analyzed for bacteria content on days 0, 1, 2, 3, 6, 8, 13, 15, 20, and 27. The bacteria concentrations are determined by serial dilution (1:10) until a growth endpoint is reached. The sample is scored on a 0-8 scale, based upon the number of serial dilutions required to reach the growth endpoint. For example, if a sample requires four 1:10 dilutions before bacterial growth is lost, then the sample receives a score of 4 which represents between 5×10^4 and 5×10^5 viable organisms.

[3] = system: Pseudomonas aeruginosa, Enterobacter gergoviae, Pseudomonas putida, Salmonella choleraesuis, Escherichia coli, Staphylococcus aureus (mixed inoculum); experiment: Preservative efficacy of dimethoxane/dibromoglutaronitrile in laundry detergent, repeated bacterial challenge; conditions: day 20
[4] = system: Pseudomonas aeruginosa, Enterobacter aerogenes, Escherichia coli, Klebsiella pneumoniae, Staphylococcus aureus, Salmonella choleraesuis (combined cultures); experiment: Preservative efficacy of DMX/BNPD in water-based latex paint, repeated bacterial challenge; conditions: for log10 viable microorganisms recovered: day 20
Procedure: as §1, §2
In this Example, the antimicrobial profiles of dimethoxane (DMX), 2-bromo-2-nitropropane-1,3-diol (BNPD) and combinations of DMX and BNPD are evaluated in a commercial (interior eggshell) water-based latex paint formulation (pH 7.4). The paint formulation is determined to be free of microbial contamination prior to initiation of preservative efficacy evaluations.
Experimental Setup. Tests are conducted in a 96-deep well block format using a total sample volume of 600 μl for all evaluations. In these samples, no more than 10% of the total volume consists of the biocide and organism solution and all non-matrix additions are normalized for all samples. Each experimental 96-well block contains biocide-treated samples and control samples which lack biocide.
Microorganisms. Twenty-four hour tryptic soy broth cultures are combined in equal parts for formulation inoculation at a final concentration of 5×10^6 CFU/ml. Organisms are added to each sample of the 96-well block and mixed until homogenous. Additionally, bacterial challenges of the paint samples occur on days 0, 2, 7, and 14 of the 28-day test period. Organisms utilized: Pseudomonas aeruginosa (ATCC#15442), Pseudomonas aeruginosa (ATCC#10145), Enterobacter aerogenes (ATCC#13048), Escherichia coli (ATCC#11229), Klebsiella pneumoniae (ATCC#8308), Staphylococcus aureus (ATCC#6538), Salmonella choleraesuis (ATCC#10708).
Enumeration of Viable Organisms. Sample aliquots are removed, at predetermined time points, for the enumeration of surviving microorganisms. Numerical values in the data tables listed below represent the log10 viable microorganisms recovered from individual samples at specific time points and biocide concentrations post microorganism addition. Biocide concentrations resulting in a ≧4 log10 kill of microorganisms, as compared to the preservative-free control, are deemed a significant reduction of viable organisms and are subsequently used for calculating synergy index values.

[5] = system: Pseudomonas aeruginosa, Enterobacter aerogenes, Escherichia coli, Klebsiella pneumoniae, Staphylococcus aureus, Salmonella choleraesuis (combined cultures); experiment: Preservative efficacy of DMX/BNPD in spinning finish emulsion, repeated bacterial challenge; conditions: ≧6 log10 microbial kill, day 27, post 4th microbial challenge
Procedure: as §1, §2
In this Example, the antimicrobial profiles of dimethoxane (DMX), 2-bromo-2-nitropropane-1,3-diol (BNPD) and combinations of DMX and BNPD are evaluated in a spinning finish emulsion. The spinning finish emulsion is determined to be free of microbial contamination prior to initiation of preservative efficacy evaluations. The spinning finish emulsion is prepared by adding 1 part spinning finish oil to 9 parts distilled water followed by 30 minutes of mixing.
Experimental Setup. Tests are conducted in a 96-deep well block format using a total sample volume of 300 to 600 μl for all evaluations. […]

[6] = minimal concentration alone giving passing score (2 or less)
[7] = ≧4 log10 microbial kill, day 20, after four bacterial challenges, ppm active

For `CC(=O)OC1CC(C)OC(C)O1` (stereo not shown) [DMX, 2,6-Dimethyl-m-dioxan-4-ol acetate], the “viable microorganism score (0-8 scale)” value ([1]; DMX 153 ppm alone) was 7, the “viable microorganism score (0-8 scale)” value ([1]; DMX 229 ppm alone) was 6 and the “viable microorganism score (0-8 scale)” value ([1]; DMX 344 ppm alone) was 6. For the same molecule, the “viable microorganism score (0-8 scale)” value ([1]; DMX 516 ppm alone) was 6, the “viable microorganism score (0-8 scale)” value ([1]; DMX 773 ppm alone) was 0 and the “viable microorganism score (0-8 scale)” value ([1]; DMX 1160 ppm alone) was 0. The “viable microorganism score (0-8 scale)” value ([1]; DMX 1740 ppm alone) was 0, the “viable microorganism score (0-8 scale)” value ([1]; DMX 2610 ppm alone) was 0 and the “Min alone, Dimethoxane (ppm)” value [1, 6] was 773 ppm. For the same molecule, the “DMX alone (ppm)” value ([2]; 4 log10 kill of bacteria) was 1160 ppm, the “viable microorganism score (0-8 scale)” value ([2]; DMX 153 ppm alone) was 5.0 and the “viable microorganism score (0-8 scale)” value ([2]; DMX 229 ppm alone) was 5.0. The “viable microorganism score (0-8 scale)” value ([2]; DMX 344 ppm alone) was 5.0, the “viable microorganism score (0-8 scale)” value ([2]; DMX 516 ppm alone) was 6.0 and the “viable microorganism score (0-8 scale)” value ([2]; DMX 773 ppm alone) was 4.0. For the same molecule, the “viable microorganism score (0-8 scale)” value ([2]; DMX 1160 ppm alone) was 0.0, the “viable microorganism score (0-8 scale)” value ([2]; DMX 1740 ppm alone) was 0.0 and the “viable microorganism score (0-8 scale)” value ([2]; DMX 2610 ppm alone) was 0.0. For the same molecule, the “viable microorganism score (0-8 scale)” value ([3]; DMX 76 ppm alone) was 8, the “viable microorganism score (0-8 scale)” value ([3]; DMX 115 ppm alone) was 8 and the “viable microorganism score (0-8 scale)” value ([3]; DMX 172 ppm alone) was 8. For the same molecule, the “viable microorganism score (0-8 scale)” value ([3]; DMX 258 ppm alone) was 7, the “viable microorganism score (0-8 scale)” value ([3]; DMX 387 ppm alone) was 3 and the “viable microorganism score (0-8 scale)” value ([3]; DMX 580 ppm alone) was 2. For the same molecule, the “viable microorganism score (0-8 scale)” value ([3]; DMX 870 ppm alone) was 2, the “viable microorganism score (0-8 scale)” value ([3]; DMX 1305 ppm alone) was 0 and the “Min alone, DMX (ppm)” value [3, 6] was 580 ppm. For the same molecule, the “log10 viable microorganisms recovered” value ([4]; DMX 102 ppm alone) was 8, the “log10 viable microorganisms recovered” value ([4]; DMX 153 ppm alone) was 8 and the “log10 viable microorganisms recovered” value ([4]; DMX 229 ppm alone) was 8. The “log10 viable microorganisms recovered” value ([4]; DMX 344 ppm alone) was 8, the “log10 viable microorganisms recovered” value ([4]; DMX 516 ppm alone) was 8 and the “log10 viable microorganisms recovered” value ([4]; DMX 773 ppm alone) was 8. For the same molecule, the “log10 viable microorganisms recovered” value ([4]; DMX 1160 ppm alone) was 8, the “log10 viable microorganisms recovered” value ([4]; DMX 1740 ppm alone) was 0 and the “DMX alone (ppm)” value [4, 7] was 1740 ppm.

`N#CCCC(Br)(C#N)CBr` (stereo not shown) [DBGN, 2-Bromo-2-(bromomethyl)glutaronitrile] was tested, and the “viable microorganism score (0-8 scale)” value ([3]; DBGN 3 ppm alone) was 8, the “viable microorganism score (0-8 scale)” value ([3]; DBGN 4 ppm alone) was 8 and the “viable microorganism score (0-8 scale)” value ([3]; DBGN 7 ppm alone) was 8. The “viable microorganism score (0-8 scale)” value ([3]; DBGN 10 ppm alone) was 8, the “viable microorganism score (0-8 scale)” value ([3]; DBGN 15 ppm alone) was 8 and the “viable microorganism score (0-8 scale)” value ([3]; DBGN 22 ppm alone) was 7. The “viable microorganism score (0-8 scale)” value ([3]; DBGN 33 ppm alone) was 3, the “viable microorganism score (0-8 scale)” value ([3]; DBGN 50 ppm alone) was 0 and the “Min alone, DBGN (ppm)” value [3, 6] was 50 ppm.

For `O=[N+]([O-])C(Br)(CO)CO` [BNPD, 2-Bromo-2-nitropropane-1,3-diol], the “BNPD alone (ppm)” value ([2]; 4 log10 kill of bacteria) was 99 ppm, the “viable microorganism score (0-8 scale)” value ([2]; BNPD 44 ppm alone) was 4.0 and the “viable microorganism score (0-8 scale)” value ([2]; BNPD 66 ppm alone) was 2.0. For the same molecule, the “viable microorganism score (0-8 scale)” value ([2]; BNPD 99 ppm alone) was 0.0, the “viable microorganism score (0-8 scale)” value ([2]; BNPD 148 ppm alone) was 0.0 and the “viable microorganism score (0-8 scale)” value ([2]; BNPD 222 ppm alone) was 0.0. For the same molecule, the “viable microorganism score (0-8 scale)” value ([2]; BNPD 333 ppm alone) was 0.0, the “viable microorganism score (0-8 scale)” value ([2]; BNPD 500 ppm alone) was 0.0 and the “viable microorganism score (0-8 scale)” value ([2]; BNPD 750 ppm alone) was 0.0. For the same molecule, the “BNPD alone (ppm), active concentration necessary for microbial kill” value [5] was 137 ppm, the “log10 viable microorganisms recovered” value ([4]; BNPD 26 ppm alone) was 8 and the “log10 viable microorganisms recovered” value ([4]; BNPD 40 ppm alone) was 8. For the same molecule, the “log10 viable microorganisms recovered” value ([4]; BNPD 59 ppm alone) was 8, the “log10 viable microorganisms recovered” value ([4]; BNPD 89 ppm alone) was 8 and the “log10 viable microorganisms recovered” value ([4]; BNPD 133 ppm alone) was 8. The “log10 viable microorganisms recovered” value ([4]; BNPD 200 ppm alone) was 8, the “log10 viable microorganisms recovered” value ([4]; BNPD 300 ppm alone) was 0 and the “log10 viable microorganisms recovered” value ([4]; BNPD 450 ppm alone) was 0. The “BNPD alone (ppm)” value [4, 7] was 300 ppm.

For `OCCOc1ccccc1` [Combination 2-PE, 2-Phenoxyethanol], the “viable microorganism score (0-8 scale)” value ([1]; 2-PE 585 ppm alone) was 7, the “viable microorganism score (0-8 scale)” value ([1]; 2-PE 878 ppm alone) was 7 and the “viable microorganism score (0-8 scale)” value ([1]; 2-PE 1317 ppm alone) was 7. For the same molecule, the “viable microorganism score (0-8 scale)” value ([1]; 2-PE 1975 ppm alone) was 7, the “viable microorganism score (0-8 scale)” value ([1]; 2-PE 2963 ppm alone) was 5 and the “viable microorganism score (0-8 scale)” value ([1]; 2-PE 4444 ppm alone) was 6. The “viable microorganism score (0-8 scale)” value ([1]; 2-PE 6667 ppm alone) was 6, the “viable microorganism score (0-8 scale)” value ([1]; 2-PE 10000 ppm alone) was 0 and the “Min alone, 2-PE (ppm)” value [1, 6] was 10000 ppm.

Source: patent US8828414B2, “Biocidal composition of 2,6-dimethyl-m-dioxane-4-ol acetate and methods of use” (priority 2009, dated 2014)
